Assay results: ChEMBL document CHEMBL4257566, “Design, synthesis and structure-based optimization of novel isoxazole-containing benzamide derivatives as FtsZ modulators” (Eur J Med Chem, 2018)
In brackets after ≈: the same amount, converted by molar mass.

What follows are compounds tested on Staphylococcus aureus (assay: Antibacterial activity against clinical isolate of penicillin-resistant Staphylococcus aureus after 24 hrs by broth microdilution based CLSI method). Conditions: not given.
Type: functional

Row | SMILES | MIC [µg/mL]
1 | COc1ccc(-c2cc(COc3ccc(F)c(C(N)=O)c3F)no2)cc1 | > 64
2 | CCOc1ccc(-c2cc(COc3ccc(F)c(C(N)=O)c3F)on2)cc1 | > 64
3 | CCCCOc1ccc(-c2cc(COc3ccc(F)c(C(N)=O)c3F)on2)cc1 | > 64
4 | NC(=O)c1c(F)ccc(OCc2cc(-c3ccc(F)cc3)no2)c1F | > 64
5 | NC(=O)c1c(F)ccc(OCc2cc(-c3ccc(Cl)c(Cl)c3)on2)c1F | > 64
6 | CCCOc1ccc(-c2cc(COc3ccc(F)c(C(N)=O)c3F)on2)cc1 | > 64
7 | CCCOc1cccc(-c2cc(COc3ccc(F)c(C(N)=O)c3F)no2)c1 | > 64
8 | CCOc1cccc(-c2cc(COc3ccc(F)c(C(N)=O)c3F)on2)c1 | > 64

What follows are compounds tested on Staphylococcus aureus (assay: Antibacterial activity against Staphylococcus aureus ATCC 25923 after 24 hrs by broth microdilution based CLSI method). Conditions: ATCC 25923, 24 h.
Type: functional

Row | SMILES | MIC [µg/mL]
9 | COc1ccc(-c2cc(COc3ccc(F)c(C(N)=O)c3F)no2)cc1 | > 64
10 | CCOc1ccc(-c2cc(COc3ccc(F)c(C(N)=O)c3F)on2)cc1 | > 64
11 | CCCCOc1ccc(-c2cc(COc3ccc(F)c(C(N)=O)c3F)on2)cc1 | > 64
12 | NC(=O)c1c(F)ccc(OCc2cc(-c3ccc(F)cc3)no2)c1F | > 64
13 | NC(=O)c1c(F)ccc(OCc2cc(-c3ccc(Cl)c(Cl)c3)on2)c1F | > 64
14 | CCCOc1ccc(-c2cc(COc3ccc(F)c(C(N)=O)c3F)on2)cc1 | > 64
15 | CCCOc1cccc(-c2cc(COc3ccc(F)c(C(N)=O)c3F)no2)c1 | > 64
16 | CCOc1cccc(-c2cc(COc3ccc(F)c(C(N)=O)c3F)on2)c1 | > 64

Each compound was assayed on Staphylococcus aureus (assay: Antibacterial activity against methicillin-resistant Staphylococcus aureus ATCC 43300 after 24 hrs by broth microdilution based CLSI method). Conditions: ATCC 43300, 24 h.
Type: functional

Row | SMILES | MIC [µg/mL]
17 | COc1ccc(-c2cc(COc3ccc(F)c(C(N)=O)c3F)no2)cc1 | > 64
18 | CCOc1ccc(-c2cc(COc3ccc(F)c(C(N)=O)c3F)on2)cc1 | > 64
19 | CCCCOc1ccc(-c2cc(COc3ccc(F)c(C(N)=O)c3F)on2)cc1 | > 64
20 | NC(=O)c1c(F)ccc(OCc2cc(-c3ccc(F)cc3)no2)c1F | > 64
21 | NC(=O)c1c(F)ccc(OCc2cc(-c3ccc(Cl)c(Cl)c3)on2)c1F | > 64
22 | CCCOc1ccc(-c2cc(COc3ccc(F)c(C(N)=O)c3F)on2)cc1 | > 64
23 | CCCOc1cccc(-c2cc(COc3ccc(F)c(C(N)=O)c3F)no2)c1 | > 64
24 | CCOc1cccc(-c2cc(COc3ccc(F)c(C(N)=O)c3F)on2)c1 | > 64

These compounds were tested on Bacillus subtilis (assay: Antibacterial activity against Bacillus subtilis ATCC 9372 after 24 hrs by broth microdilution based CLSI method). Conditions: ATCC 9372, 24 h.
Type: functional

Row | SMILES | MIC [µg/mL]
25 | COc1ccc(-c2cc(COc3ccc(F)c(C(N)=O)c3F)no2)cc1 | 64 (≈ 178 µM)
26 | CCOc1ccc(-c2cc(COc3ccc(F)c(C(N)=O)c3F)on2)cc1 | 1 (≈ 2.67 µM)
27 | CCCCOc1ccc(-c2cc(COc3ccc(F)c(C(N)=O)c3F)on2)cc1 | > 64
28 | NC(=O)c1c(F)ccc(OCc2cc(-c3ccc(F)cc3)no2)c1F | 4 (≈ 11.5 µM)
29 | NC(=O)c1c(F)ccc(OCc2cc(-c3ccc(Cl)c(Cl)c3)on2)c1F | > 64
30 | CCCOc1ccc(-c2cc(COc3ccc(F)c(C(N)=O)c3F)on2)cc1 | 16 (≈ 41.2 µM)
31 | CCCOc1cccc(-c2cc(COc3ccc(F)c(C(N)=O)c3F)no2)c1 | 4 (≈ 10.3 µM)
32 | CCOc1cccc(-c2cc(COc3ccc(F)c(C(N)=O)c3F)on2)c1 | 2 (≈ 5.34 µM)

The compounds below were run on Escherichia coli (assay: Antibacterial activity against Escherichia coli ATCC 25922 after 24 hrs by broth microdilution based CLSI method). Conditions: ATCC 25922, 24 h.
Type: functional

Row | SMILES | MIC [µg/mL]
33 | COc1ccc(-c2cc(COc3ccc(F)c(C(N)=O)c3F)no2)cc1 | > 64
34 | CCOc1ccc(-c2cc(COc3ccc(F)c(C(N)=O)c3F)on2)cc1 | > 64
35 | CCCCOc1ccc(-c2cc(COc3ccc(F)c(C(N)=O)c3F)on2)cc1 | > 64
36 | NC(=O)c1c(F)ccc(OCc2cc(-c3ccc(F)cc3)no2)c1F | > 64
37 | NC(=O)c1c(F)ccc(OCc2cc(-c3ccc(Cl)c(Cl)c3)on2)c1F | > 64
38 | CCCOc1ccc(-c2cc(COc3ccc(F)c(C(N)=O)c3F)on2)cc1 | > 64
39 | CCCOc1cccc(-c2cc(COc3ccc(F)c(C(N)=O)c3F)no2)c1 | > 64
40 | CCOc1cccc(-c2cc(COc3ccc(F)c(C(N)=O)c3F)on2)c1 | > 64

The compounds below were run on Pseudomonas aeruginosa (assay: Antibacterial activity against Pseudomonas aeruginosa ATCC 27853 after 24 hrs by broth microdilution based CLSI method). Conditions: ATCC 27853, 24 h.
Type: functional

Row | SMILES | MIC [µg/mL]
41 | COc1ccc(-c2cc(COc3ccc(F)c(C(N)=O)c3F)no2)cc1 | > 64
42 | CCOc1ccc(-c2cc(COc3ccc(F)c(C(N)=O)c3F)on2)cc1 | > 64
43 | CCCCOc1ccc(-c2cc(COc3ccc(F)c(C(N)=O)c3F)on2)cc1 | > 64
44 | NC(=O)c1c(F)ccc(OCc2cc(-c3ccc(F)cc3)no2)c1F | > 64
45 | NC(=O)c1c(F)ccc(OCc2cc(-c3ccc(Cl)c(Cl)c3)on2)c1F | > 64
46 | CCCOc1ccc(-c2cc(COc3ccc(F)c(C(N)=O)c3F)on2)cc1 | > 64
47 | CCCOc1cccc(-c2cc(COc3ccc(F)c(C(N)=O)c3F)no2)c1 | > 64
48 | CCOc1cccc(-c2cc(COc3ccc(F)c(C(N)=O)c3F)on2)c1 | > 64

These compounds were tested on Bacillus pumilus (assay: Antibacterial activity against Bacillus pumilus CMCC63202 after 24 hrs by broth microdilution based CLSI method). Conditions: CMCC63202, 24 h.
Type: functional

Row | SMILES | MIC [µg/mL]
49 | COc1ccc(-c2cc(COc3ccc(F)c(C(N)=O)c3F)no2)cc1 | > 64
50 | CCOc1ccc(-c2cc(COc3ccc(F)c(C(N)=O)c3F)on2)cc1 | > 64
51 | CCCCOc1ccc(-c2cc(COc3ccc(F)c(C(N)=O)c3F)on2)cc1 | > 64
52 | NC(=O)c1c(F)ccc(OCc2cc(-c3ccc(F)cc3)no2)c1F | > 64
53 | NC(=O)c1c(F)ccc(OCc2cc(-c3ccc(Cl)c(Cl)c3)on2)c1F | > 64
54 | CCCOc1ccc(-c2cc(COc3ccc(F)c(C(N)=O)c3F)on2)cc1 | > 64
55 | CCCOc1cccc(-c2cc(COc3ccc(F)c(C(N)=O)c3F)no2)c1 | > 64
56 | CCOc1cccc(-c2cc(COc3ccc(F)c(C(N)=O)c3F)on2)c1 | 16 (≈ 42.7 µM)
